According to patent publication US20260373266A1, “PROTEIN DEGRADERS AND USES THEREOF” (KYMERA THERAPEUTICS, INC., priority 2022, published 2026):

Biological target: T1, DCAF1 WD40 domain (residues 1077-1390) (Homo sapiens, UniProt Q9Y4B6)
T1 construct: DCAF1 WD40 domain (residues 1077-1390)
Assay: DCAF1 binding assay by SPR (Biacore 8K+), DCAF1-3 KD
Details: 25 °C, read-out: DCAF1-3 SPR (KD)

T1 sequence (Q9Y4B6 1077-1390): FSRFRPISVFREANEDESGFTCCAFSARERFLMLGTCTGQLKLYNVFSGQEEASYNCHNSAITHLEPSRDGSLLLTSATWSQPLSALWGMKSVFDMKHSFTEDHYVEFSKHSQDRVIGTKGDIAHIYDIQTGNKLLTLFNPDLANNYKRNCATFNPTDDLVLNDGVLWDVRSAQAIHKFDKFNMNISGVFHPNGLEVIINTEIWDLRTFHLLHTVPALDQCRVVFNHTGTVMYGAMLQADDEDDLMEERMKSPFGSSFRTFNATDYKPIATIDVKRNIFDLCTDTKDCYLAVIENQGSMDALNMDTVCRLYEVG

Kd [µM] | SMILES
100 to 200 | Fc1cccc(N2C3CC[C@H]2CC[C@H]3Nc2nccc(N3CCOCC3)n2)c1 (stereo in doubt) [I-60]
> 200 | Fc1cccc(N2C3CC[C@H]2CC[C@H]3Nc2cc(N3CCOCC3)ccn2)c1 (stereo in doubt) [I-80]
> 200 | Fc1cccc(N2[C@H]3CCC[C@@H]2[C@H](Nc2nccc(N4CCOCC4)n2)CC3)c1 (stereo in doubt) [I-322]
> 200 | Fc1cccc(N2C[C@H](Nc3cc(N4CCOCC4)ncn3)C3CCC[C@H]2C3)c1 (stereo in doubt) [I-384]
100 to 200 | Fc1cccc(N2CCC[C@@H](Nc3cc(N4CCOCC4)ncn3)C2)c1 [I-1]
100 to 200 | c1ccc(N2CCC[C@@H](Nc3cc(N4CCOCC4)ncn3)C2)cc1 [I-2]
> 200 | Fc1ccccc1N1CCC[C@@H](Nc2cc(N3CCOCC3)ncn2)C1 [I-3]
> 200 | Cc1ccccc1N1CCC[C@@H](Nc2cc(N3CCOCC3)ncn2)C1 [I-4]
> 200 | Cc1cccc(N2CCC[C@@H](Nc3cc(N4CCOCC4)ncn3)C2)c1 [I-5]
> 200 | c1cc(N2CCC[C@@H](Nc3cc(N4CCOCC4)ncn3)C2)ccn1 [I-6]
100 to 200 | Fc1ccc(N2CCC[C@@H](Nc3cc(N4CCOCC4)ncn3)C2)cc1 [I-7]
100 to 200 | Cc1ccc(N2CCC[C@@H](Nc3cc(N4CCOCC4)ncn3)C2)cc1 [I-8]
100 to 200 | COc1cccc(N2CCC[C@@H](Nc3cc(N4CCOCC4)ncn3)C2)c1 [I-9]
> 200 | COc1ccc(N2CCC[C@@H](Nc3cc(N4CCOCC4)ncn3)C2)cc1 [I-10]
> 200 | c1ccc(N2CCC[C@@H](Nc3cc(N4CCOCC4)ncn3)C2)nc1 [I-11]
> 200 | c1cncc(N2CCC[C@@H](Nc3cc(N4CCOCC4)ncn3)C2)c1 [I-12]
> 200 | Oc1cccc(N2CCC[C@@H](Nc3cc(N4CCOCC4)ncn3)C2)c1 [I-13]
100 to 200 | Oc1ccc(N2CCC[C@@H](Nc3cc(N4CCOCC4)ncn3)C2)cc1 [I-14]
> 200 | COc1ccccc1N1CCC[C@@H](Nc2cc(N3CCOCC3)ncn2)C1 [I-15]
> 200 | Oc1ccccc1N1CCC[C@@H](Nc2cc(N3CCOCC3)ncn2)C1 [I-16]
100 to 200 | Fc1cccc(N2CCC[C@@H](Nc3cccc(N4CCOCC4)n3)C2)c1 [I-17]
> 200 | Fc1cccc(N2CCC[C@@H](Nc3ccnc(N4CCOCC4)c3)C2)c1 [I-18]
10 to 100 | Fc1cccc(N2CCC[C@@H](Nc3cncc(N4CCOCC4)c3)C2)c1 [I-19]

Kd [µM] | SMILES
> 200 | Fc1cccc(N2CCC[C@@H](Nc3cc(N4CCOCC4)cnn3)C2)c1 [I-20]
> 200 | O=C(Nc1ccc(F)c(Cl)c1)C1CCN(c2ccnc(-c3ccccc3)n2)CC1 [I-21]
> 200 | Fc1cccc(N2CCCC(Nc3nccc(N4CCOCC4)n3)C2)c1 (stereo not drawn) [I-22]
> 200 | Fc1cccc(N2CCCC(Nc3nccc(N4CCNCC4)n3)C2)c1 (stereo not drawn) [I-23]
> 200 | CCN1CCN(c2ccnc(NC3CCCN(c4cccc(F)c4)C3)n2)CC1 (stereo not drawn) [I-24]
> 200 | CCCN1CCN(c2ccnc(NC3CCCN(c4cccc(F)c4)C3)n2)CC1 (stereo not drawn) [I-25]
> 200 | CCCCN1CCN(c2ccnc(NC3CCCN(c4cccc(F)c4)C3)n2)CC1 (stereo not drawn) [I-26]
100 to 200 | Fc1cccc(N2CCCC(Nc3nccc(N4CCCCC4)n3)C2)c1 (stereo not drawn) [I-27]
10 to 100 | COCCN1CCN(c2ccnc(NC3CCCN(c4cccc(F)c4)C3)n2)CC1 (stereo not drawn) [I-28]
100 to 200 | c1cnc2c(N3CCC[C@@H](Nc4nccc(N5CCOCC5)n4)C3)cccc2c1 [I-30]
> 200 | c1cc(N2CCC[C@@H](Nc3nccc(N4CCOCC4)n3)C2)c2cnccc2c1 [I-31]
> 200 | c1ccc2cc(N3CCC[C@@H](Nc4nccc(N5CCOCC5)n4)C3)ccc2c1 [I-32]
> 200 | c1cc2cc(N3CCC[C@@H](Nc4nccc(N5CCOCC5)n4)C3)ccc2cn1 [I-33]
> 200 | Fc1cccc(N2CCC[C@@H](N(Cc3ccccc3)c3nccc(N4CCOCC4)n3)C2)c1 [I-34]
10 to 100 | c1ccc2c(N3CCC[C@@H](Nc4nccc(N5CCOCC5)n4)C3)ccnc2c1 [I-35]
10 to 100 | c1ccc2c(N3CCC[C@@H](Nc4nccc(N5CCOCC5)n4)C3)nccc2c1 [I-36]
> 200 | c1ccc2nc(N3CCC[C@@H](Nc4nccc(N5CCOCC5)n4)C3)ccc2c1 [I-37]
> 200 | CN(c1nccc(N2CCOCC2)n1)[C@@H]1CCCN(c2cccc(F)c2)C1 [I-39]
100 to 200 | COCCN(c1nccc(N2CCOCC2)n1)[C@@H]1CCCN(c2cccc(F)c2)C1 [I-40]
100 to 200 | Fc1cccc(N2CCC[C@@H](N(CC3CC3)c3nccc(N4CCOCC4)n3)C2)c1 [I-41]
> 200 | CCN(c1nccc(N2CCOCC2)n1)[C@@H]1CCCN(c2cccc(F)c2)C1 [I-42]
> 200 | CCCN(c1nccc(N2CCOCC2)n1)[C@@H]1CCCN(c2cccc(F)c2)C1 [I-44]
10 to 100 | c1cnc2cc(N3CCC[C@@H](Nc4nccc(N5CCOCC5)n4)C3)ccc2c1 [I-45]

Kd [µM] | SMILES
> 200 | c1ccc2ncc(N3CCC[C@@H](Nc4nccc(N5CCOCC5)n4)C3)cc2c1 [I-46]
100 to 200 | c1ccc2cc(N3CCC[C@@H](Nc4nccc(N5CCOCC5)n4)C3)ncc2c1 [I-47]
100 to 200 | Fc1cccc(N2CCC[C@@H](n3ccc4c(N5CCOCC5)ccnc43)C2)c1 [I-49]
> 200 | Fc1cccc(N2CCC[C@@H](n3cnc4c(N5CCOCC5)ccnc43)C2)c1 [I-50]
> 200 | Fc1cccc(N2CCC[C@@H](n3cnc4c(N5CCOCC5)ncnc43)C2)c1 [I-51]
> 200 | c1ccc2c(N3CCC[C@@H](Nc4nccc(N5CCOCC5)n4)C3)cccc2c1 [I-52]
100 to 200 | c1cc(N2CCC[C@@H](Nc3nccc(N4CCOCC4)n3)C2)c2cccnc2c1 [I-53]
10 to 100 | c1ccc2c(N3CCC[C@@H](Nc4nccc(N5CCOCC5)n4)C3)cncc2c1 [I-54]
100 to 200 | c1cc(N2CCC[C@@H](Nc3nccc(N4CCOCC4)n3)C2)c2ccncc2c1 [I-55]
> 200 | c1cnc2ccc(N3CCC[C@@H](Nc4nccc(N5CCOCC5)n4)C3)cc2c1 [I-56]
10 to 100 | c1cc2ccc(N3CCC[C@@H](Nc4nccc(N5CCOCC5)n4)C3)cc2cn1 [I-57]
10 to 100 | Fc1cccc(N2CCC[C@@H](n3ccc(N4CCOCC4)c4ccnc3-4)C2)c1 [I-58]
100 to 200 | Fc1cccc(N2CCC[C@@H](n3ccc4c(N5CCOCC5)ncnc43)C2)c1 [I-59]
10 to 100 | COCCN1CCN(c2ccnc(N[C@@H]3CCCN(c4cccc(F)c4)C3)c2)CC1 [I-61]
> 200 | c1ccc2c(N3CCC[C@@H](Nc4cc(N5CCOCC5)ccn4)C3)nccc2c1 [I-62]
100 to 200 | c1cnc2ccnc(N3CCC[C@@H](Nc4cc(N5CCOCC5)ccn4)C3)c2c1 [I-63]
100 to 200 | c1cnc2c(N3CCC[C@@H](Nc4cc(N5CCOCC5)ccn4)C3)nccc2c1 [I-64]
100 to 200 | c1ccc2c(N3CCC[C@@H](Nc4cc(N5CCOCC5)ccn4)C3)nncc2c1 [I-65]
100 to 200 | c1cc2c(N3CCC[C@@H](Nc4cc(N5CCOCC5)ccn4)C3)nccc2cn1 [I-66]
> 200 | c1ccc2c(N3CCC[C@@H](Nc4cc(N5CCOCC5)ccn4)C3)ncnc2c1 [I-67]
100 to 200 | c1cc2ccnc(N3CCC[C@@H](Nc4cc(N5CCOCC5)ccn4)C3)c2cn1 [I-68]
100 to 200 | c1cnc(N2CCC[C@@H](Nc3cc(N4CCOCC4)ccn3)C2)nc1 [I-69]
> 200 | Cc1ccc(N2CCOCC2)cc1N[C@@H]1CCCN(c2cccc(F)c2)C1 [I-70]

Kd [µM] | SMILES
10 to 100 | N#Cc1ccc(N2CCOCC2)cc1N[C@@H]1CCCN(c2cccc(F)c2)C1 [I-71]
100 to 200 | Fc1cc2ccccc2c(N2CCC[C@@H](Nc3cc(N4CCOCC4)ccn3)C2)n1 [I-72]
100 to 200 | c1ccc2c(N3CCC[C@@H](Nc4cc(N5CCOCC5)ccn4)C3)noc2c1 [I-73]
10 to 100 | Fc1ccc(N2CCC[C@@H](Nc3cc(N4CCOCC4)ccn3)C2)cc1F [I-74]
10 to 100 | c1ccc(N2CCC[C@@H](Nc3cc(N4CCOCC4)ccn3)C2)cc1 [I-75]
10 to 100 | COCCN(c1cc(N2CCOCC2)ccn1)[C@@H]1CCCN(c2cccc(F)c2)C1 [I-76]
10 to 100 | CNC(=O)C[C@H](NC(=O)c1cn[nH]c1-c1ccccc1F)c1cccc(Cl)c1 [I-79]
> 200 | Fc1cccc(N2CCC[C@@H](Oc3cc(N4CCOCC4)ccn3)C2)c1 [I-81]
10 to 100 | CCNC(=O)C[C@H](NC(=O)c1cn[nH]c1-c1ccccc1F)c1cccc(Cl)c1 [I-83]
10 to 100 | O=C(C[C@H](NC(=O)c1cn[nH]c1-c1ccccc1F)c1cccc(Cl)c1)NCc1ccccc1 [I-84]
> 200 | O=C(Nc1ccccc1)NC1CCCN(C(=O)N2CCC=C(F)C2)C1 (stereo not drawn) [I-85]
> 200 | O=C(CC1CN(C(=O)N2CCC=C(F)C2)CCO1)Nc1ccccn1 (stereo not drawn) [I-86]
> 200 | Fc1cccc(N2CCC[C@@H](Cc3cc(N4CCOCC4)ccn3)C2)c1 [I-87]
> 200 | COCCn1ncc(C(=O)N[C@@H](CC(N)=O)c2cccc(Cl)c2)c1-c1ccccc1F [I-88]
10 to 100 | NC(=O)C[C@H](NC(=O)c1cc[nH]c1-c1ccccc1F)c1cccc(Cl)c1 [I-89]
< 10 | NC(=O)C[C@H](NC(=O)c1c[nH]cc1-c1ccccc1F)c1cccc(Cl)c1 [I-90]
> 200 | Fc1cccc(N2CCC[C@@H](Nc3cc(C4CCCCC4)ccn3)C2)c1 [I-91]
> 200 | Fc1cccc(N2CCC[C@@H](Nc3cc(C4CCOCC4)ccn3)C2)c1 [I-92]
> 200 | Fc1cccc(N2CCC[C@@H](Nc3cc(C4CCNCC4)ccn3)C2)c1 [I-93]
> 200 | Fc1cccc(N2CCC[C@@H](Nc3cc([C@@H]4CCCCO4)ccn3)C2)c1 [I-94]
> 200 | Fc1cccc(N2CCC[C@@H](Nc3cc([C@H]4CCCCO4)ccn3)C2)c1 [I-95]
10 to 100 | NC(=O)C[C@H](NC(=O)c1c[nH]cc1-c1ccccc1F)c1ccccc1Cl [I-96]

Same assay, conditions: DCAF1-3 SPR (KD), 25 °C

Kd [µM] | SMILES
10 to 100 | Fc1cccc(N2CCC[C@@H](Nc3cc(N4CCOCC4)ccn3)C2)c1 [I-29, (R)—N—(I-(3-fluorophenyl)piperidin-3-yl)-4-morpholinopyridin-2-amine]
> 200 | CCCCN(c1nccc(N2CCOCC2)n1)[C@@H]1CCCN(c2cccc(F)c2)C1 [I-43]
